The nature of this data set: Week 2 plasma trough protease inhibitor concentration. Set-up: species or system human. Conditions: in vivo.

Turning to `CC(C)CN(C[C@@H](O)[C@H](Cc1ccccc1)NC(=O)O[C@H]1CCOC1)S(=O)(=O)c1ccc(N)cc1` [amprenavir], the “decrease in the mean trough concentration per C allele” value (human, 2 weeks) is recorded as 35%. As to `CC(C)c1nc(CN(C)C(=O)N[C@H](C(=O)N[C@@H](Cc2ccccc2)C[C@H](O)[C@H](Cc2ccccc2)NC(=O)OCc2cncs2)C(C)C)cs1` [ritonavir], the “association of SLCO1B1 521T→C with week 2 trough concentration” value is recorded as “no significant association”. The “week 2 trough measures below the assay limit of quantification (200 ng/ml)” value (human, 2 weeks) is recorded as 86%. Regarding `CC(C)(C)NC(=O)[C@@H]1C[C@@H]2CCCC[C@@H]2CN1C[C@@H](O)[C@H](Cc1ccccc1)NC(=O)[C@H](CC(N)=O)NC(=O)c1ccc2ccccc2n1` [saquinavir], the “association of SLCO1B1 521T→C with week 2 trough concentration” value is “no significant association”.
